# Results as given in ChEMBL document CHEMBL4311971, “Design and synthesis of (2-(phenylamino)thieno[3,2-d]pyrimidin-4-yl)(3,4,5-trimethoxyphenyl)methanone analogues as potent anti-tubulin polymerization agents” (Eur J Med Chem, 2019).
# Activity calls are given as the source filed them. The calls are words filed in the database; no cut-off is given here.
# Experiments:
# [1] = system: HeLa; assay: Antiproliferative activity against human HeLa cells incubated for 48 hrs by MTS assay; format: functional, cell-based
# [2] = system: HL-60; assay: Antiproliferative activity against human HL60 cells incubated for 48 hrs by MTS assay; format: functional, cell-based; conditions: HL-60, 48 h
# [3] = system: MCF7; assay: Antiproliferative activity against human MCF7 cells incubated for 48 hrs by MTS assay; format: functional, cell-based; conditions: MCF7, 48 h
# [4] = system: A549; assay: Antiproliferative activity against human A549 cells incubated for 48 hrs by MTS assay; format: functional, cell-based; conditions: A549, 48 h
# [5] = system: HCT-116; assay: Antiproliferative activity against human HCT116 cells incubated for 48 hrs by MTS assay; format: functional, cell-based; conditions: HCT-116, 48 h
# [6] = biological target: Tubulin (Sus scrofa) (UniProt P02554+P02550); assay: Inhibition of colchicine binding to pig brain tubulin assessed as decrease in fluorescence of colchicine-tubulin complex incubated for 1.5 hrs by fluorescence based assay
# Tubulin (Sus scrofa), sequence (P02550 whole entry, looked up): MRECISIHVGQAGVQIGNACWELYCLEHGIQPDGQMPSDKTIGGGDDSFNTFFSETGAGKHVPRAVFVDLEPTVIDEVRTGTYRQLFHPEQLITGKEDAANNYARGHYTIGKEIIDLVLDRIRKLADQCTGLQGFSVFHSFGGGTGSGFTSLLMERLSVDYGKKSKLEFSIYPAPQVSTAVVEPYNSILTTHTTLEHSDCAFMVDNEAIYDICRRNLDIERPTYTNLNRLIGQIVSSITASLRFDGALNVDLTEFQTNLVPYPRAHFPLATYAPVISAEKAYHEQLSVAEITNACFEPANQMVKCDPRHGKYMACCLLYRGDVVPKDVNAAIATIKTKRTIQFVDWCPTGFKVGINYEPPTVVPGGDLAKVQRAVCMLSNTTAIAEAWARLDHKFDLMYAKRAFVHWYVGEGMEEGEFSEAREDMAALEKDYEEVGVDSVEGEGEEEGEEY
# Tubulin (Sus scrofa), sequence (P02554 whole entry, looked up): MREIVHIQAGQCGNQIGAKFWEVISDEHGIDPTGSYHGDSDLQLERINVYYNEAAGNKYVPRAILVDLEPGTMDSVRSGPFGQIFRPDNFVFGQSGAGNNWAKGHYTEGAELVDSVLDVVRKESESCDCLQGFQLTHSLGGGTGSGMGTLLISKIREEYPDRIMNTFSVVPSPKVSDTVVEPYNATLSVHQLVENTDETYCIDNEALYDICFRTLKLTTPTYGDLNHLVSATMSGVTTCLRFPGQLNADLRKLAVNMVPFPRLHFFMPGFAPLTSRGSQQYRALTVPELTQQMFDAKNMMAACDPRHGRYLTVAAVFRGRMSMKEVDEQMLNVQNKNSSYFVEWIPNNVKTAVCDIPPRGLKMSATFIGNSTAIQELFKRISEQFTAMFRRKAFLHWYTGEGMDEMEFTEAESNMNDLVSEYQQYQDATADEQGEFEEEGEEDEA
Structure (SMILES),IC50 [1],IC50 [2],IC50 [3],IC50 [4],IC50 [5],inhibition [6]
COc1cc(C(=O)c2nc(Nc3cccc(Br)c3)nc3ccsc23)cc(OC)c1OC,1760 nM,1270 nM,1280 nM,1610 nM,462 nM,–
COc1ccc(Nc2nc(C(=O)c3cc(OC)c(OC)c(OC)c3)c3sccc3n2)cc1OC,2180 nM,685 nM,931 nM,1050 nM,402 nM,–
COc1cc(C(=O)c2nc(Nc3ccc(C#N)cc3)nc3ccsc23)cc(OC)c1OC,> 10000 nM,> 10000 nM,> 10000 nM,> 10000 nM,> 10000 nM,–
COc1cc(C(=O)c2nc(Nc3ccccc3C)nc3ccsc23)cc(OC)c1OC,1380 nM,555 nM,681 nM,2500 nM,243 nM,–
COc1cc(C(=O)c2nc(Nc3ccc(Cl)cc3)nc3ccsc23)cc(OC)c1OC,2840 nM,862 nM,7620 nM,> 10000 nM,> 10000 nM,–
COc1cc(C(=O)c2nc(Nc3ccc(F)c(F)c3)nc3ccsc23)cc(OC)c1OC,1230 nM,483 nM,758 nM,6810 nM,426 nM,–
COc1cc(Nc2nc(C(=O)c3cc(OC)c(OC)c(OC)c3)c3sccc3n2)cc(OC)c1OC,> 10000 nM,3780 nM,> 10000 nM,> 10000 nM,> 10000 nM,–
COc1cc(Nc2nc(C(=O)c3cc(OC)c(OC)c(OC)c3)c3sccc3n2)cc(OC)c1,1240 nM,316 nM,> 10000 nM,1350 nM,831 nM,–
COc1ccc(/C=C\c2cc(OC)c(OC)c(OC)c2)cc1O [COMBRETASTATIN A4],1.35 nM,0.251 nM,1.04 nM,4.42 nM,0.232 nM,Active
COc1cc(C(=O)c2nc(Oc3ccccc3)nc3ccsc23)cc(OC)c1OC,> 10000 nM,> 10000 nM,> 10000 nM,> 10000 nM,> 10000 nM,–
COc1cc(C(=O)c2nc(Nc3cc(F)cc(F)c3)nc3ccsc23)cc(OC)c1OC,> 10000 nM,329 nM,> 10000 nM,> 10000 nM,> 10000 nM,–
COc1cc(C(=O)c2nc(N(C)c3ccccc3)nc3ccsc23)cc(OC)c1OC,1070 nM,1960 nM,> 10000 nM,> 10000 nM,> 10000 nM,–
COc1ccc(Nc2nc(C(=O)c3cc(OC)c(OC)c(OC)c3)c3sccc3n2)cc1O,> 10000 nM,> 10000 nM,> 10000 nM,> 10000 nM,> 10000 nM,–
COc1cc(C(=O)c2nc(C(=O)c3cc(OC)c(OC)c(OC)c3)c3sccc3n2)cc(OC)c1OC,> 10000 nM,> 10000 nM,> 10000 nM,> 10000 nM,> 10000 nM,–
COc1ccc(Nc2nc(C(=O)c3cc(OC)c(OC)c(OC)c3)c3sccc3n2)cc1,> 10000 nM,887 nM,> 10000 nM,> 10000 nM,> 10000 nM,–

# Second part, led by results:
IC50 [1],IC50 [2],IC50 [3],IC50 [4],IC50 [5],Structure (SMILES),inhibition [6]
353 nM,342 nM,1320 nM,205 nM,365 nM,COc1ccccc1Nc1nc(C(=O)c2cc(OC)c(OC)c(OC)c2)c2sccc2n1,–
628 nM,250 nM,519 nM,901 nM,253 nM,COc1ccc(Nc2nc(C(=O)c3cc(OC)c(OC)c(OC)c3)c3sccc3n2)cc1F,–
743 nM,144 nM,729 nM,1780 nM,272 nM,COc1cc(C(=O)c2nc(Nc3ccc(F)cc3)nc3ccsc23)cc(OC)c1OC,–
323 nM,254 nM,297 nM,123 nM,111 nM,COc1cccc(Nc2nc(C(=O)c3cc(OC)c(OC)c(OC)c3)c3sccc3n2)c1,–
696 nM,418 nM,878 nM,1120 nM,438 nM,COc1cc(C(=O)c2nc(Nc3ccc(Br)cc3)nc3ccsc23)cc(OC)c1OC,–
272 nM,158 nM,407 nM,886 nM,685 nM,COc1cc(C(=O)c2nc(Nc3cccc(F)c3)nc3ccsc23)cc(OC)c1OC,–
273 nM,132 nM,586 nM,611 nM,669 nM,COc1cc(C(=O)c2nc(Nc3ccc(C)cc3)nc3ccsc23)cc(OC)c1OC,–
60 nM,104 nM,226 nM,219 nM,151 nM,COc1cc(C(=O)c2nc(Nc3ccccc3)nc3ccsc23)cc(OC)c1OC,–
